Results published in US20100029704A1, “SALT OF NONSTEROIDAL ANTI-INFLAMMATORY DRUG AND ORGANIC AMINE COMPOUND AND USE THEREOF” (priority 2007, published 2010).
Structures can show the parent of a compound that is named as a salt.

Key:
[1] = Solubility of NSAID-eperisone salt and NSAID free acid in diethyl sebacate; format: physicochemical; details: for dissolution in diethyl sebacate (50 g): 5 g NSAID free acid or ionic liquid corresponding to 5 g NSAID, shaken at room temperature for 30 min; for amount (g) of diethyl sebacate necessary for dissolving NSAID (1 g): NSAID free acid; for amount (g) of diethyl sebacate necessary for dissolving NSAID (1 g) / amount (g) of diethyl sebacate necessary for dissolving an eperisone salt corresponding to NSAID (1 g): room temperature
Method: The solubility of an eperisone salt of NSAID, and a free acid of NSAID in diethyl sebacate widely used for external preparations was measured. […] The solutions were stood still and, when an undissolved matter was found, diethyl sebacate was further added, and the mixture was shaken.

[2] = Skin permeability test using isolated rat abdominal skin (Franz-type diffusion cell); details: accumulated up to 6 hours, 2.5 wt % as NSAID free acid in diethyl sebacate/propylene glycol, 32° C.
Method: An equimolar salt of NSAID and organic amine was dissolved in a mixture of diethyl sebacate and propylene glycol to give a solution preparation. For comparison, a solution preparation (control) of NSAID was prepared in the same manner.
As a receptor solution, saline-ethanol solution (9:1, 8 ml) was placed in an upright Franz-type diffusion cell (effective diffusion area: 1 cm^2), and the solution was stirred and maintained at 32° C. An isolated abdominal shaved skin of 6-week-old Wistar rat was applied to the Franz cell, and the prepared solution preparation (0.15 ml) was applied to the skin. A part (300 μL) of the receptor solution was taken at predetermined time intervals, the drug concentration in the receptor solution was measured by high performance liquid chromatography, and the drug permeation amount per 1 cm^2 rat skin was calculated.
Unless otherwise indicated, in the following Experimental Examples, the drug concentration of the solution preparation is 2.5 wt % as NSAID free acid, and the skin permeation amount is an accumulated amount (μg/cm^2) up to 6 hours.

[3] = Form of the salt on standing / long-term preservation; format: physicochemical
Method: First, a salt was produced using equimolar amounts of a carboxylic acid NSAID and organic amine. […] The obtained ionic liquid or crystals and the like were left standing, confirmed to be stable, and then the forms thereof were observed. This has clarified that the salt produced by the combination of NSAID and an organic amine compound may be a liquid (viscous liquid) or crystal at ambient temperature (25° C.).

[4] = room temperature; crystals were indomethacin:lidocain 2:1; cited from earlier work

COc1ccc2c(c1)c(CC(=O)O)c(C)n2C(=O)c1ccc(Cl)cc1 [indomethacin]
dissolution in diethyl sebacate (50 g) [1]: not dissolved
amount (g) of diethyl sebacate necessary for dissolving NSAID (1 g) [1]: not less than 100 g
indomethacin permeation amount [2]: 6.9 μg/cm^2

CC(C(=O)O)c1ccc(CC2CCCC2=O)cc1 (stereo not shown) [loxoprofen sodium salt, reference compound]
loxoprofen permeation amount ([2]; sodium salt): 27.1 μg/cm^2

CC(C(=O)O)c1cccc(C(=O)c2ccccc2)c1 (stereo not shown) [ketoprofen, reference compound]
Ketoprofen permeation amount [2]: 36.1 μg/cm^2

CCc1ccc(C(=O)C(C)CN2CCCCC2)cc1.COc1ccc2c(c1)c(CC(=O)O)c(C)n2C(=O)c1ccc(Cl)cc1 [indomethacin-eperisone salt]
amount (g) of diethyl sebacate necessary for dissolving an eperisone salt corresponding to NSAID (1 g) [1]: not more than 10 g

O=C(O)Cc1ccccc1Nc1c(Cl)cccc1Cl [diclofenac]
dissolution in diethyl sebacate (50 g) [1]: not dissolved
amount (g) of diethyl sebacate necessary for dissolving NSAID (1 g) [1]: not less than 100 g
diclofenac permeation amount [2]: 8.8 μg/cm^2

CC(C(=O)O)c1ccc(CC2CCCC2=O)cc1.CCN(CC)CC(=O)Nc1c(C)cccc1C (stereo not shown) [loxoprofen-lidocain salt]
loxoprofen permeation amount [2]: 103.4 μg/cm^2

CC(C(=O)O)c1ccc(-c2ccccc2)c(F)c1.COc1cccc(C2(O)CCCCC2CN(C)C)c1 (stereo not shown) [flurbiprofen-tramadol salt]
flurbiprofen permeation amount [2]: 78.1 μg/cm^2

CC(C(=O)O)c1ccc(-c2ccccc2)c(F)c1.CCN(CC)CC(=O)Nc1c(C)cccc1C (stereo not shown) [flurbiprofen-lidocain salt]
flurbiprofen permeation amount [2]: 91.0 μg/cm^2

CC(C(=O)O)c1ccc(CC2CCCC2=O)cc1.CCCCN1CCCCC1C(=O)Nc1c(C)cccc1C (stereo not shown) [loxoprofen-bupivacaine salt]
form/note: crystallization during long-term preservation [3]: partially

CCc1cccc2c3c([nH]c12)C(CC)(CC(=O)O)OCC3.Cc1ccc(C(=O)C(C)CN2CCCCC2)cc1 (stereo not shown) [etodolac-tolperisone salt]
etodolac permeation amount [2]: 22.3 μg/cm^2

CCN(CC)CC(=O)Nc1c(C)cccc1C.O=C(O)Cc1ccccc1Nc1c(Cl)cccc1Cl [diclofenac-lidocain salt]
form/note: crystallization during long-term preservation [3]: partial

COc1cccc(C2(O)CCCCC2CN(C)C)c1.O=C(O)Cc1ccccc1Nc1c(Cl)cccc1Cl (stereo not shown) [diclofenac-tramadol salt]
form/note: crystallization during long-term preservation [3]: crystallized

CC(O)CN(CC(C)O)CC(C)O.COc1ccc2c(c1)c(CC(=O)O)c(C)n2C(=O)c1ccc(Cl)cc1 [indomethacin-TIPA salt]
indomethacin permeation amount [2]: 15.8 μg/cm^2

CC(C(=O)O)c1ccc(-c2ccccc2)c(F)c1.Cc1ccc(C(=O)C(C)CN2CCCCC2)cc1 (stereo not shown) [flurbiprofen-tolperisone salt]
flurbiprofen permeation amount [2]: 46.3 μg/cm^2

CC(C(=O)O)c1ccc(-c2ccccc2)c(F)c1.CC(O)CN(CC(C)O)CC(C)O (stereo not shown) [flurbiprofen-TIPA salt]
flurbiprofen permeation amount [2]: 91.8 μg/cm^2

CC(C(=O)O)c1ccc(CC2CCCC2=O)cc1 (stereo not shown) [loxoprofen]
dissolution in diethyl sebacate (50 g) [1]: not dissolved
amount (g) of diethyl sebacate necessary for dissolving NSAID (1 g) [1]: not less than 100 g
loxoprofen permeation amount ([2]; listed as loxoprofen free acid): 49.5 μg/cm^2

CC(C(=O)O)c1ccc(-c2ccccc2)c(F)c1 (stereo not shown) [flurbiprofen, reference compound]
amount (g) of diethyl sebacate necessary for dissolving NSAID (1 g) [1]: not more than 10 g
flurbiprofen permeation amount [2]: 20.2 μg/cm^2

CCN(CC)CC(=O)Nc1c(C)cccc1C.COc1ccc2c(c1)c(CC(=O)O)c(C)n2C(=O)c1ccc(Cl)cc1
stability of the ionic liquid when stood still [4]: crystals were gradually precipitated

loxoprofen-DIPA salt
loxoprofen permeation amount [2]: 68.6 μg/cm^2

CC(C(=O)O)c1ccc(CC2CCCC2=O)cc1.CCc1ccc(C(=O)C(C)CN2CCCCC2)cc1 (stereo not shown) [loxoprofen-eperisone salt]
amount (g) of diethyl sebacate necessary for dissolving an eperisone salt corresponding to NSAID (1 g) [1]: not more than 10 g
loxoprofen permeation amount [2]: 91.2 μg/cm^2

CCc1cccc2c3c([nH]c12)C(CC)(CC(=O)O)OCC3 (stereo not shown) [etodolac, reference compound]
amount (g) of diethyl sebacate necessary for dissolving NSAID (1 g) [1]: not more than 10 g
etodolac permeation amount [2]: 10.4 μg/cm^2

COc1ccc2c(c1)c(CC(=O)O)c(C)n2C(=O)c1ccc(Cl)cc1.Cc1ccc(C(=O)C(C)CN2CCCCC2)cc1 [indomethacin-tolperisone salt]
indomethacin permeation amount [2]: 14.7 μg/cm^2

COc1ccc2c(c1)c(CC(=O)O)c(C)n2C(=O)c1ccc(Cl)cc1.COc1cccc(C2(O)CCCCC2CN(C)C)c1 [indomethacin-tramadol salt]
indomethacin permeation amount [2]: 9.8 μg/cm^2

CCc1ccc(C(=O)C(C)CN2CCCCC2)cc1.CCc1cccc2c3c([nH]c12)C(CC)(CC(=O)O)OCC3 (stereo not shown) [etodolac-eperisone salt]
amount (g) of diethyl sebacate necessary for dissolving an eperisone salt corresponding to NSAID (1 g) [1]: not more than 10 g
etodolac permeation amount [2]: 20.5 μg/cm^2

Cc1ccc(C(=O)C(C)CN2CCCCC2)cc1.O=C(O)Cc1ccccc1Nc1c(Cl)cccc1Cl [diclofenac-tolperisone salt]
diclofenac permeation amount [2]: 20.3 μg/cm^2

CC(C(=O)O)c1ccc(-c2ccccc2)c(F)c1.CCc1ccc(C(=O)C(C)CN2CCCCC2)cc1 (stereo not shown) [flurbiprofen-eperisone salt]
amount (g) of diethyl sebacate necessary for dissolving an eperisone salt corresponding to NSAID (1 g) [1]: not more than 10 g

CC(C(=O)O)c1ccc(CC2CCCC2=O)cc1.Cc1ccc(C(=O)C(C)CN2CCCCC2)cc1 (stereo not shown) [loxoprofen-tolperisone salt]
loxoprofen permeation amount [2]: 82.3 μg/cm^2
